The source of these data is article PMC4919066 (PLoS Pathogens, 2016).

Assay [1] concerns pp28-luciferase HCMV Towne. Kind of assay: Drug combination with GCV, Bliss model. The format is cell-based, Human Cytomegalovirus. The settings on record: emetine combined with GCV, luciferase assay. The protocol:
The combined inhibitory effect of compounds on HCMV replication was determined in infected HFFs as previously reported. The Bliss model, in which drug combination represents the product of two probabilistically independent events, was used for analysis.

For assay [2], the system named is MDM2-IE2. Kind of assay: Co-immunoprecipitation MDM2-IE2 in transfected HEK293 cells. The format is cell-based. The settings on record: IE1/2 transfection, emetine 75 nM or GCV 5 μM for 4 h. The protocol: HEK-293 cells seeded into 10 cm petri dishes were transfected with HCMV plasmid encoding IE1 and IE2 (pRL45), using Lipofectamine 2000 in serum free medium. After 6 h, 10% FBS containing media was added along with 10 μM of MG132. […] Cells were then harvested to prepare lysates for IP.
Non-infected, infected or emetine-treated HFFs were treated with MG132 (10 μM) for 12h. Cells were harvested after 24 hpi and lysed with IP buffer containing 150 mM NaCl, 50mM Tris pH 7.5, 2 mM EDTA, 0.5% TritonX-100 and 0.5% NP-40-40. 1 mg of lysate was precleared with bead slurry for 30 min. The precleared lysates were incubated with anti-MDM2 (2 μg) antibody overnight. The antibody complexes were isolated using protein A/G beads (Santa Cruz), washed three times with 50% IP buffer. The immunoprecipitate-protein A/G beads were boiled in SDS sample buffer, and the supernatant was analyzed on SDS-PAGE gels after immunoblotting as described previously. 1% of the cell lysate used for IP was loaded on gels as ‘Input’. Confirmatory reverse IPs were performed as described in each experiment. Isotype control antibodies included: rabbit IgG polyclonal, mouse IgG2a kappa and mouse IgG2b kappa monoclonal (Abcam). Mouse monoclonal RPS19 antibody (Abcam) served as an additional negative control for the IPs. Densitometry analysis was performed to determine relative ratio of immunoprecipitated protein to its input level.

Assay [3] concerns the target RPS14 (Homo sapiens, UniProt P62263). Kind of assay: RPS14 nuclear localization, confocal microscopy. The settings on record: emetine 75 nM, infected high-density cells. The format is cell-based. The protocol: Cells were fixed with 3.7% paraformaldehyde for 20 min at room temperature, permeabilized with ice cold methanol for 10 min at -20°C and blocked with 5% bovine serum albumin in 0.5% Tween-20 for 20 min at room temperature. Cells were incubated with primary antibodies at 4°C overnight, washed and incubated with fluorescently-labeled secondary antibodies for 2 h at 37°C. Fluorescence microscopy was performed using a confocal laser scanning microscope (Nikon EZ C1). All images were captured at 60X magnification and processed under identical conditions with constant parameters (including scan speed and excitation and emission wavelengths) using Nikon EZ C1 software. Data analysis (percent nuclear localization) was performed by NIS-Elements software (Nikon) for a minimum of 40 cells in the high-density and 25 cells in the low-density samples from two fields per condition.

Assay [4] deals with GCV-resistant pp28-luciferase Towne. The experiment in a line: GCV-resistant pp28-luciferase HCMV luciferase assay. The format is cell-based, Human Cytomegalovirus. The settings on record: Human betaherpesvirus 5, read-out: Mean EC50 ± SD. The protocol:
The pp28-luciferase HCMV Towne and a GCV-resistant pp28-luciferase were used. The recombinant viruses express luciferase under the control of the late CMV gene promoter, pp28. Luciferase expression is activated 48–72 hours post infection (hpi). The recombinant viruses provide a highly-sensitive reporter system which correlates with plaque reduction assay. The Towne HCMV strain (ATCC VR-977) was used for plaque reduction, quantitative reverse transcriptase PCR (qRT-PCR), and immunoprecipitation assays. Human herpes virus strains were: luciferase HSV1- KOS/Dlux/oriS [52] and clinical isolates of HSV2. The clinical isolates were provided by the clinical microbiology laboratory with no identifiers that can link to a specific subject. Murid Herpesvirus (MCMV: ATCC VR-1399) was used for infection of mouse embryonic fibroblasts (MEFs) and mice.
Human Foreskin Fibroblasts (HFFs) passage 12–16 (ATCC, CRL-2088) and mouse embryonic fibroblasts (MEFs) passage 9–14 (ATCC, CRL-1658) were grown in Dulbecco's Modified Eagle Medium (DMEM) containing 10% fetal bovine serum (FBS) (Gibco, Carlsbad, CA) in a 5% CO2 incubator at 37°C. […] Luciferase activity was measured 72 h following second cycle infection. […] After incubation at 37°C for 10 days (for HCMV), 3 days for MCMV or 2 days (for HSV), the overlay was removed and plaques were counted after crystal violet staining.

In assay [5] the test system is HCMV proteins IE1/2, UL44 and pp65. Kind of assay: Western blot of viral proteins. The format is cell-based, Human Cytomegalovirus. The settings on record: emetine 75 nM, 72 hpi. An excerpt:
Cell lysates were quantified for protein content using bicinchoninic acid (BCA) protein assay kit (Pierce Chemical, Rockford, IL). Equivalent amount of proteins were used for Western blot analysis as described previously (11). Protein bands were visualized by chemiluminescence using Western Blotting Luminol Reagent (Santa Cruz Biotechnology, Santa Cruz, CA). The following antibodies were used for detection of HCMV proteins: mouse anti-IE1 and IE2, (MAb810); mouse anti-UL44 (Santa Cruz biotechnology); mouse monoclonal anti-pp65 (Vector laboratories, Burlingame, CA); mouse monoclonal anti-β-actin antibody (Millipore, Billerica, MA); rabbit polyclonal anti-RPS14 and mouse monoclonal anti-MDM2 (AbCam, Cambridge, UK), mouse monoclonal anti-p53 (Santa Cruz); horseradish peroxidase (HRP)-conjugated goat anti-rabbit IgG (Cell Signaling); and HRP-conjugated sheep anti-mouse IgG, (GE Healthcare, Waukesha, WI). For detection of co-immunoprecipitated proteins, protein A-HRP conjugate (Cell Signaling Technologies, Beverly, MA) was used as secondary antibody to eliminate the interfering IgG bands.

Structures can show the parent of a compound that is named as a salt.

Usually EC50 stands for the concentration at which the effect is half-maximal.

As to `CC[C@H]1CN2CCc3cc(OC)c(OC)cc3[C@@H]2C[C@@H]1C[C@H]1NCCc2cc(OC)c(OC)cc21` [emetine, emetine dihydrochloride hydrate], the “HCMV inhibition in combination with GCV” value in assay [1] is recorded as “synergistic”. Also, in assay [2], the “interaction between MDM2 and IE2” value is given as “significantly decreased”. Also, the figures for the “nuclear localization of RPS14” value in assay [3] (24 hpi) and in assay [3] (72 hpi) were 66% and 11%, respectively. In addition, the EC50 in assay [4] came to 38 nM. Further, the “expression of HCMV proteins IE1/2, UL44 and pp65” value in assay [5] is on record as “significantly reduced”.
